One assay addresses T1, Human Factor D (Homo sapiens, UniProt P00746).
T1 construct: purified from human serum; purchased Complement Technology, Inc; host or cells: human serum
Nature of the assay: Human Factor D assay (Example 8). In kind it is biochemical.
Details: not given
As for the experimental part:
Human Factor D (purified from human serum, Complement Technology, Inc.) at 80 nM final concentration was incubated with test compound at various concentrations for 5 minutes at room temperature in 50 mM Tris, 1M NaCl, pH 7.5. A synthetic substrate Z-L-Lys-SBzl and DTNB (Ellman's reagent) are added to final concentrations of 100 μM each. […] IC50 values are calculated by nonlinear regression of complement Factor D reaction rates as a function of test compound concentration.
T1 sequence (P00746 26-253): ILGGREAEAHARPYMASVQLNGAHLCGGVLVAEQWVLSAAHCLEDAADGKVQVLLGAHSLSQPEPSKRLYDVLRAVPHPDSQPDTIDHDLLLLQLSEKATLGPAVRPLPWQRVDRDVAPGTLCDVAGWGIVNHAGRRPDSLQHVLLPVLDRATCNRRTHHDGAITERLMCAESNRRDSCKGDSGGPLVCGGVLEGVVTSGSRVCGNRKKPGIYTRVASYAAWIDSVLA
Broadly, the IC50 is the midpoint of a concentration-inhibition curve. In the case of `COc1ccc2c(O[C@@H]3C[C@@H](C(=O)NCc4cccc(Cl)c4F)N(C(=O)Cn4cc(C(C)=O)c5ccccc54)C3)cc(-c3ccccc3)nc2c1` [Compound 29, (2S,4R)-1-(2-(3-acetyl-1H-indol-1-yl)acetyl)-N-(3-chloro-2-fluorobenzyl)-4-(7-methoxy-2-phenylquinolin-4-yloxy)pyrrolidine-2-carboxamide], the IC50 was greater than 10 µM.
The same measure, in the same setting: the value for `CC(=O)c1cn(CC(=O)N2[C@H](C(=O)NCc3cccc(Cl)c3F)C[C@@H]3CCCC[C@@H]32)c2cc(O)ccc12` [Compound 35, (2S,3aS,7aS)-1-(2-(3-acetyl-6-hydroxy-1H-indol-1-yl)acetyl)-N-(3-chloro-2-fluorobenzyl)octa-hydro-1H-indole-2-carboxamide] was less than 1 µM; that for `CC(=O)c1cn(CC(=O)N2C[C@H](F)C[C@H]2C(=O)Nc2cccc(SC(F)(F)F)c2)c2cc(O)ccc12` [Compound 48, (2S,4R)-1-(2-(3-acetyl-6-hydroxy-1H-indol-1-yl)acetyl)-4-fluoro-N-(3-(trifluoromethylthio)phenyl)pyrrolidine-2-carboxamide] was less than 1 µM.
Still for that read-out and setting: the value for `CC(=O)c1cn(CC(=O)N2C[C@H](F)C[C@H]2C(=O)NCc2cc(P(=O)(O)O)cc(Cl)c2F)c2ccccc12` [Compound 63, 3-(((2S,4R)-1-(2-(3-acetyl-1H-indol-1-yl)acetyl)-4-fluoropyrrolidine-2-carboxamido)methyl)-5-chloro-4-fluorophenylphos-phonic acid] was less than 1 µM.

Staying with this assay, now noted: Table 1; Human Factor D 80 nM, substrate Z-L-Lys-SBzl; read-out: IC50.
`NC(=O)N1C[C@H](F)C[C@H]1Cn1cc(-c2ccc(F)c(Cl)c2)nn1` [Compound 30, (2S,4R)-2-((4-(3-chloro-4-fluorophenyl)-1H-1,2,3-triazol-1-yl)methyl)-4-fluoropyrrolidine-1-carboxamide]: the IC50 was greater than 10 µM.
Same read-out and setting: under `NC(=O)n1cc(NC(=O)C2=C(C(=O)NCc3cccc(Cl)c3F)CCC2)c2ccccc21` [Compound 31, N1-(1-carbamoyl-1H-indol-3-yl)-N2-(3-chloro-2-fluorobenzyl)cyclo-pent-1-ene-1,2-dicarboxamide] stands greater than 10 µM.
Same read-out and setting: under `CC(=O)c1cn(CC(=O)N2C[C@H](F)C[C@H]2C(=O)N2Cc3ccccc3C2)c2ccccc12` [Compound 33, 2-(3-acetyl-1H-indol-1-yl)-1-((2S,4R)-4-fluoro-2-(isoindoline-2-carbonyl)pyrrolidin-1-yl)ethanone] stands greater than 10 µM.
Take `CC(=O)c1cn(CC(=O)N2C[C@H](F)C[C@H]2C(=O)N(C)Cc2cccc(Cl)c2F)c2ccccc12` [Compound 34, (2S,4R)-1-(2-(3-acetyl-1H-indol-1-yl)acetyl)-N-(3-chloro-2-fluorobenzyl)-4-fluoro-N-methylpyrrolidine-2-carboxamide]: the half-inhibitory concentration (IC50) is greater than 10 µM.
On the same count and under the same terms, under `N#Cc1cn(CC(=O)N2C[C@H](F)C[C@H]2C(=O)NCc2cccc(Cl)c2F)c2ccccc12` [Compound 36, (2S,4R)-N-(3-chloro-2-fluorobenzyl)-1-(2-(3-cyano-1H-indol-1-yl)acetyl)-4-fluoropyrrolidine-2-carboxamide] stands less than 1 µM; under `O=C1CCCc2c1c1ccccc1n2CC(=O)N1C[C@H](F)C[C@H]1C(=O)NCc1cccc(Cl)c1F` [Compound 37, (2S,4R)-N-(3-chloro-2-fluorobenzyl)-4-fluoro-1-(2-(4-oxo-3,4-dihydro-1H-carbazol-9(2H)-yl)acetyl)pyrrolidine-2-carboxamide], less than 1 µM.
On the same count and under the same terms, the value for `CC(C)(C)OC(=O)N[C@@H](Cc1c[nH]c2ccccc12)C(=O)N1C[C@H](F)C[C@H]1C(=O)NCc1cccc(Cl)c1F` [Compound 38, tert-butyl (S)-1-((2S,4R)-2-(3-chloro-2-fluorobenzylcarbamoyl)-4-fluoropyrrolidin-1-yl)-3-(1H-indol-3-yl)-1-oxopropan-2-ylcarbamate] was greater than 10 µM; that for `N[C@@H](Cc1c[nH]c2ccccc12)C(=O)N1C[C@H](F)C[C@H]1C(=O)NCc1cccc(Cl)c1F` [Compound 39, (2S,4R)-1-((S)-2-amino-3-(1H-indol-3-yl)propanoyl)-N-(3-chloro-2-fluorobenzyl)-4-fluoropyrrolidine-2-carboxamide] was greater than 10 µM; that for `CC(=O)c1nn(CC(=O)N2C[C@H](F)C[C@H]2C(=O)Nc2cccc(SC(F)(F)F)c2)c2cnccc12` [Compound 45, (2S,4R)-1-(2-(3-acetyl-1H-pyrazolo[3,4-c]pyridin-1-yl)acetyl)-4-fluoro-N-(3-(trifluoromethylthio)phenyl)pyrrolidine-2-carboxamide] was less than 1 µM.
The same measure, in the same setting: under `O=C(NCc1cccc(Cl)c1F)[C@@H]1C[C@@H](F)CN1C(=O)Cn1cc([N+](=O)[O-])c2ccccc21` [Compound 46, (2S,4R)-N-(3-chloro-2-fluorobenzyl)-4-fluoro-1-(2-(3-nitro-1H-indol-1-yl)acetyl)pyrrolidine-2-carboxamide] stands less than 1 µM.
For `CC(=O)Nc1cn(CC(=O)N2C[C@H](F)C[C@H]2C(=O)NCc2cccc(Cl)c2F)c2ccccc12` [Compound 47, (2S,4R)-1-(2-(3-acetamido-1H-indol-1-yl)acetyl)-N-(3-chloro-2-fluorobenzyl)-4-fluoropyrrolidine-2-carboxamide], the concentration for half-maximal inhibition (IC50) is less than 1 µM.
Same read-out and setting: under `O=C(NCc1cccc(Cl)c1F)[C@@H]1C[C@@H](F)CN1C(=O)c1csc(-c2cccnc2)n1` [Compound 50, (2S,4R)-N-(3-chloro-2-fluorobenzyl)-4-fluoro-1-(2-(pyridin-3-yl)thiazole-4-carbonyl)pyrrolidine-2-carboxamide] stands greater than 10 µM.
For the compound `CC(=O)Nc1ccc(C(=O)N2C[C@H](F)C[C@H]2C(=O)NCc2cccc(Cl)c2F)cn1` [Compound 51, (2S,4R)-1-(6-acetamidonicotinoyl)-N-(3-chloro-2-fluorobenzyl)-4-fluoropyrrolidine-2-carboxamide], the concentration for half-maximal inhibition (IC50) is greater than 10 µM.
On the same count and under the same terms, the value for `O=C(NCc1cccc(Cl)c1F)[C@@H]1C[C@@H](F)CN1C(=O)Cn1nc(I)c2ccncc21` [Compound 52, (2S,4R)-N-(3-chloro-2-fluorobenzyl)-4-fluoro-1-(2-(3-iodo-1H-pyrazolo[3,4-c]pyridin-1-yl)acetyl)pyrrolidine-2-carboxamide] was less than 1 µM; that for `O=C(NCc1cccc(Cl)c1F)[C@@H]1C[C@@H](F)CN1C(=O)Nc1cn(C(=O)C2CC2)c2ccccc12` [Compound 54, (2S,4R)-N2-(3-chloro-2-fluorobenzyl)-N1-(1-(cyclopropanecarbonyl)-1H-indol-3-yl)-4-fluoropyrrolidine-1,2-dicarboxamide] was less than 1 µM.
Consider `CC(=O)c1cn(C(C)C(=O)N2C[C@H](F)C[C@H]2C(=O)NCc2cccc(Cl)c2F)c2ccccc12` (some centres unmarked) [Compound 55], for which the half-inhibitory concentration (IC50) is greater than 10 µM.
On the same count and under the same terms, under `CC(=O)c1cn(C(C)(C)C(=O)N2C[C@H](F)C[C@H]2C(=O)NCc2cccc(Cl)c2F)c2ccccc12` [Compound 56] stands greater than 10 µM; under `O=C(NCc1cccc(Cl)c1F)[C@@H]1C[C@@H](F)CN1C(=O)Cn1nc(P(=O)(O)O)c2ccncc21` [Compound 57], greater than 10 µM; under `O=C(NCc1cccc(Cl)c1F)[C@@H]1C[C@@H](F)CN1C(=O)CN1C=NS(=O)(=O)c2ccccc21` [Compound 65, (2S,4R)-N-(3-chloro-2-fluorobenzyl)-1-(2-(1,1-dioxido-4H-benzo[e][1,2,4]thiadiazin-4-yl)acetyl)-4-fluoropyrrolidine-2-carboxamide], greater than 10 µM.
The same measure, in the same setting: the value for `CC(C)(C)OC(=O)N1CCc2c(n(CC(=O)N3C[C@H](F)C[C@H]3C(=O)NCc3cccc(Cl)c3F)c3ccccc23)C1` [Compound 67, tert-butyl 9-(2-((2S,4R)-2-(3-chloro-2-fluorobenzylcarbamoyl)-4-fluoropyrrolidin-1-yl)-2-oxoethyl)-3,4-dihydro-1H-pyrido[3,4-b]indole-2(9H)-carboxylate] was greater than 10 µM.
For the compound `O=C(NCc1cccc(Cl)c1F)[C@@H]1C[C@@H](F)CN1C(=O)Cn1c2c(c3ccccc31)CCNC2` [Compound 68, (2S,4R)-N-(3-chloro-2-fluorobenzyl)-1-(2-(3,4-dihydro-1H-pyrido[3,4-b]indol-9(2H)-yl)acetyl)-4-fluoropyrrolidine-2-carboxamide], the concentration for half-maximal inhibition (IC50) was greater than 10 µM.
Regarding `CCOC(=O)CC(=O)N1CCc2c(n(CC(=O)N3C[C@H](F)C[C@H]3C(=O)NCc3cccc(Cl)c3F)c3ccccc23)C1` [Compound 70, ethyl 3-(9-(2-((2S,4R)-2-(3-chloro-2-fluorobenzylcarbamoyl)-4-fluoropyrrolidin-1-yl)-2-oxoethyl)-3,4-dihydro-1H-pyrido[3,4-b]indol-2(9H)-yl)-3-oxopropanoate], the half-inhibitory concentration (IC50) is greater than 10 µM.
The same measure, in the same setting: under `CC(=O)n1cc(C(=O)C(=O)N2C[C@H](F)C[C@H]2C(=O)NCc2cccc(Cl)c2F)c2ccccc21` [Compound 71, (2S,4R)-1-(2-(1-acetyl-1H-indol-3-yl)-2-oxoacetyl)-N-(3-chloro-2-fluorobenzyl)-4-fluoropyrrolidine-2-carboxamide] stands greater than 10 µM; under `O=C(O)CCC(=O)N1CCc2c(n(CC(=O)N3C[C@H](F)C[C@H]3C(=O)NCc3cccc(Cl)c3F)c3ccccc23)C1` [Compound 72, 4-(9-(2-((2S,4R)-2-(3-chloro-2-fluorobenzylcarbamoyl)-4-fluoropyrrolidin-1-yl)-2-oxoethyl)-3,4-dihydro-1H-pyrido[3,4-b]indol-2(9H)-yl)-4-oxobutanoic acid], greater than 10 µM.
Still for that read-out and setting: the value for `O=C(NCc1cccc(Cl)c1F)[C@@H]1C[C@@H](F)CN1C(=O)Cn1nc(-c2cn[nH]c2)c2ccncc21` [Compound 73, (2S,4R)-1-(2-(3-(1H-pyrazol-4-yl)-1H-pyrazolo[3,4-c]pyridin-1-yl)acetyl)-N-(3-chloro-2-fluorobenzyl)-4-fluoropyrrolidine-2-carboxamide] was less than 1 µM.

(Values after patent publication US10092584B2 (Achillion Pharmaceuticals, Inc., priority 2015, dated 2018).)
